In US12054562B2, “Cell-permeable inhibitory agent and methods of use thereof in treatment of cognitive and mood disorders” (priority 2015, dated 2024):

Legend:
[1] = system: α5GABAA receptor cell-surface expression; experiment: Receptor cell-surface ELISA assay in cultured hippocampal neurons; format: cell-based, mouse; conditions: peptide 2 μM, 24 hrs, astrocyte-conditioned medium (etomidate 1 μM, 1 hr)
Protocol: This experimental cell culture model was used to test the effects of the inhibitory peptide on an overexpression of α5GABAA receptors on the surface of neurons. The medium from astrocytes that were treated with etomidate (1 μM, 1 hr) (conditioned medium) was collected, and the medium bathing cultured hippocampal neurons was exchanged with the astrocyte-conditioned medium. The cells were incubated at 37° C., 5% CO2 with the peptide or scramble peptide (2 μM). After 24 hrs incubation, the cells were used for receptor cell-surface ELISA assay. The cells were fixed in 4% paraformaldehyde for 20 min in the presence (permeabilized) or absence (non-permeabilized) of 1% Triton-X100. The cells, after 3 times wash with cold PBS and blocked with 5% bovine album solution, were incubated with a α5 antibody (Santa Cruz Biotech Inc.) at 4° C. overnight. The next day the cells were thoroughly washed with PBS and incubated with the horseradish peroxidase (HRP)-conjugated secondary antibody for 2 hrs. With HRP substrate added and color developed in the medium, the results were determined with microplate reader.
The cell surface expression of α5 subunit was presented as the ratio of the colorimetric reading under non-permeabilized conditions to those permeabilized conditions. Consistent with the previous report, etomidate increases α5GABAA receptor surface expression. This increase was blocked by the specific peptide, but not the scramble peptide (FIG. 6A).
For astrocyte culture, cortical astrocytes were isolated from embryonic day 18 (E18) mouse embryos. Cells were allowed to grow to confluence in MEM and 10% fetal bovine serum (FBS; Life Technologies, Grand Island, New York) for 14 d. Cells were then enzymatically dissociated with trypsin-EDTA (0.05%; Life Technologies, Grand Island, New York), and passaged three times to obtain a nearly pure astrocytic culture. Astrocytes were then plated at a density of 25,000 cells per dish. […]

[2] = target: T1, α2 subunit containing GABAA receptors (Mus musculus, UniProt P26048); experiment: Co-IP and WB, gephyrin and α2 subunit containing GABAA receptors; format: binding; conditions: immunoprecipitates from Example 1, hippocampal tissue
T1 construct: α1 and α2 subunit containing GABAA receptors in the hippocampal tissue; from tissue; host or cells: hippocampus of adult mice
T1 sequence (P26048 29-451): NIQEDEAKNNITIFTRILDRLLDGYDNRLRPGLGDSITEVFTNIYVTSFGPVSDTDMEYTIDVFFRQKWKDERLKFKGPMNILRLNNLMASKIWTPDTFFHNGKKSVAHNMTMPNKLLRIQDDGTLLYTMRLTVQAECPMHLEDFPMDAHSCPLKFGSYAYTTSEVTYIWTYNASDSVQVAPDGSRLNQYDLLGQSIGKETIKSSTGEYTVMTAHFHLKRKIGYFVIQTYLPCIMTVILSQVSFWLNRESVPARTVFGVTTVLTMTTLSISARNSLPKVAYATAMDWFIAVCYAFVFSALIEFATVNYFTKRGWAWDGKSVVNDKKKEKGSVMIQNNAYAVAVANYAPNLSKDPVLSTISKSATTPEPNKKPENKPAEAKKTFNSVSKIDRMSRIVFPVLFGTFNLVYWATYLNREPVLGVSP

[3] = system: etomidate-induced memory deficits in mice; experiment: Novel object recognition task, treatment paradigm; format: in vivo, mouse; conditions: peptide given the day after etomidate, 4 hrs before behavioral testing
Protocol: In the present study, mice were handled two times a day, 5 min each before start of behavioral experiments. Object recognition was assessed in a circle opaque chamber with the diameter of 38.5 cm in a regular lit room. Each mouse was habituated to the chamber for 5 min since day 3. During the training phase, the mouse was allowed to explore two identical objects for 5 min. The mouse was then returned to its home cage for a retention period of 1 h. The mouse was reintroduced to the training context and presented with one familiar object and one novel object for 5 min. Movement and interaction with the objects was recorded with a video camera that was mounted above the chamber. The exploratory behavior and mouse activity was analyzed blindly by a person with a good training and the software EthoVision, XT v11.5 provided by the Noldus Information Tech Inc., (Leesburg VA, USA). Exploratory behavior was defined as sniffing, licking, or touching the object while facing the object. Memory was assessed by measuring the novelty preference ratio (i.e., the ratio of time spent exploring the novel object to the time spent exploring both objects). […] Total interaction time with both objects was compared between groups to determine whether the treatments affected locomotor activity or exploration during the testing phase. […]

mice = conditions: mouse, in vivo
Protocol: In the present study, mice were handled two times a day, 5 min each before start of behavioral experiments. Object recognition was assessed in a circle opaque chamber with the diameter of 38.5 cm in a regular lit room. Each mouse was habituated to the chamber for 5 min since day 3. During the training phase, the mouse was allowed to explore two identical objects for 5 min. The mouse was then returned to its home cage for a retention period of 1 h. The mouse was reintroduced to the training context and presented with one familiar object and one novel object for 5 min. Movement and interaction with the objects was recorded with a video camera that was mounted above the chamber. The exploratory behavior and mouse activity was analyzed blindly by a person with a good training and the software EthoVision, XT v11.5 provided by the Noldus Information Tech Inc., (Leesburg VA, USA). Exploratory behavior was defined as sniffing, licking, or touching the object while facing the object. Memory was assessed by measuring the novelty preference ratio (i.e., the ratio of time spent exploring the novel object to the time spent exploring both objects). […] Total interaction time with both objects was compared between groups to determine whether the treatments affected locomotor activity or exploration during the testing phase.
Specifically, we studied whether the use of the inhibitory peptide with etomidate prevented etomidate-induced memory deficits (attributed to the increase in cell surface expression of α5GABAA receptors). […] Saline and 35% propylene glycol were used as the vehicle control. NOR was conducted the next day.

Sequence: NYFTKRGWAWDGKKAL [inhibitory peptide]
- etomidate-induced increase in α5GABAA receptor surface expression [1]: blocked
- effects on α2 subunit containing GABAA receptors (gephyrin interaction) [2]: did not have any effects
- memory deficits in etomidate-treated mice (NOR, treatment) [3]: reversed
- Body Angle State Bent (mice): 6 ± 3 s
- Body Angle State Bent (%) (mice): 2%
- Body Angle State Straight (mice): 269 ± 45 s
- Body Angle State Straight (%) (mice): 98%
- Body Elongation State Contracted (mice): 48 ± 66 s
- Body Elongation State Contracted (%) (mice): 16%
- Body Elongation State Normal (mice): 252 ± 66 s
- Body Elongation State Normal (%) (mice): 84%
- Body Elongation State Stretched (mice): 0 s
- Rotation Frequency (mice): 5.5 ± 1.7
